Read-outs that look alike come from different tables or passages of the source.
Assays:
Tet^R E. coli = assay: Recovery of tetracycline activity (co-administration, MIC of tetracycline); assay type: cell-based, Escherichia coli
Experimental: (§1) MIC experiments were performed as described in the Clinical and Laboratory Standards Institute (CLSI) standard microdilution protocols. Bacteria was grown overnight from one CFU in media without antibiotics. Tet^R E. coli was grown in media containing 100 μg/mL Ampicillin. On the day of experiment, bacteria were knocked back to O.D. 600 nm=0.550 in the same media. These exponential phase bacteria were then diluted in antibiotics-free media to get […]. In a 96-well plate either L. B. Miller or MHII media was added followed by serially diluted compounds 1-11, tetracycline, or ampicillin. All the tryptophan based compounds were dissolved in DMSO and the final concentration of DMSO in each well was kept constant at 0.5% (v/v).
(§2) For the combination experiments, first, the BT or control was added to the media in the well followed by the antibiotics. The contents of the well were mixed before adding 20 μL of bacteria to get 4×10^5 CFU/mL per well. The plates were incubated at 37° C., 200 RPM for 24 hours before collecting results on the Biotek Cytation 3 plate reader. No more than three plates were stacked on top of each other at a time. Optical density of the wells was determined at λ=600 nm. Cells alone were considered as 0% inhibition and media alone was considered as 100% inhibition. Any inhibition greater than 80% was considered as the MIC. The results were reproduced three times before reporting.
First, MICs were determined for compounds 2, 3, 5, 6, 7, and 10 against Tet^R E. coli. Compounds 6 (para-Ph) and 7 (n-C3) were also included as controls. The MICs against Tet^R E. coli were refined compared to the power series and are reported as a range in Table 1 above. The MICs of tetracycline and ampicillin against Tet^R E. coli were 900±100 μM and >1000 μM, respectively. For comparison, the MIC for tetracycline against non-resistant E. coli K-12 is ˜3 μM. Ampicillin was used to maintain selective pressure for the expression of pBR322 plasmid. Ampicillin was omitted from experiments that contained tetracycline. Next, the MIC of tetracycline was determined when co-administered with 2, 3, 5, 6, 7, or 10. The results are represented as the MIC of tetracycline in the presence of the indicated BTs. The fold-recovery was determined by dividing the MIC of tetracycline when used alone by the MIC of tetracycline determined in the presence of the compounds.
The fractional inhibitory concentration (FIC) is often used as a measure of synergism or antagonism in comparing two or more compounds (Berenbaum, Pharmacol. Rev. 1989, 41, 93-141). The FIC is the sum of the fraction of the MIC for each compound used. Synergy is defined broadly as FIC<1, or more conservatively as FIC≤0.5. Under the broad definition, all compounds tested can be said to have at least moderate synergy with tetracycline. All arene-based compounds fit the more conservative definition of synergy with FIC values of 0.5 or less at the tested concentrations.

[1] = system: S. aureus (ATCC Accession No. 29213); assay: MIC, CLSI/NCCLS broth microdilution; assay type: cell-based, Staphylococcus aureus; conditions: Staphylococcus aureus, read-out: Minimal Inhibitory Concentration (MIC) S. aureus
Experimental: Two different strains of E. coli (Gram-negative) were used. The laboratory strain of E. coli, K-12 (ATCC Accession No. 700926), was used for preliminary MIC determinations. The tetracycline resistant strain of E. coli (Tet^R) was prepared by transforming competent JM109 E. coli (Promega) with the pBR322 plasmid (Carolina Biologicals) using the manufacturers protocol. This plasmid contains two resistance genes: the tetA gene expresses the tetracycline resistance TetA efflux pump (Sapunaric and Levy, Microbiol. 2005, 151, 2315-2322) and the amp^R gene expresses a β-lactamase enzyme (Bolivar, et al; Gene 1977, 2, 95-113) that cleaves the four membered ring of penicillin derivatives. The resulting E. coli, which we designate Tet^R E. coli, is both tetracycline and ampicillin resistant. The TetA efflux pump belongs to the major facilitator superfamily (MFS), spans the cytoplasmic membrane, and transports tetracycline from the cell cytoplasm to the periplasmic space (Thanassi, et al., J. Bacteriol. 1995, 177, 998-1007). This active efflux utilizes the proton gradient as an energy source (Levy, Antimicrob. Agents Chemother. 1992, 36, 695-703). One Gram-positive strain, S. aureus (ATCC Accession No. 29213), used for MIC study expresses the MFS type NorA efflux pump and is methicillin sensitive. MFS type efflux pumps are clinically relevant for resistance in both Gram-positive and Gram-negative bacteria (Sun, et al., Biochem. Biophys. Res. Commun. 2014, 453, 254-267). A Staphylococcus aureus 1199B strain that overexpresses the NorA efflux pump was also used to conduct checkerboard experiments (see, Example 8 below). This strain of S. aureus 1199B is resistant to both norfloxacin and ethidium bromide.
K-12 E. coli and S. aureus were acquired from ATCC. The S. aureus strain was used in the BSL-2 facility. K-12 E. coli was grown in L. B. Miller media (Sigma-Aldrich) and S. aureus was grown in cation adjusted MHII media (Sigma-Aldrich). Tet^R E. coli was grown in L. B. Miller media containing 100 μg/mL Ampicillin.
as §1, §2
All minimum inhibitory concentration (MIC) values for compounds 1-11 were determined according to the methods prescribed by the National Committee for Clinical Laboratory Standards (NCCLS, Methods for Dilution Antimicrobial Susceptibility Tests for Bacteria that grow aerobically; National Committee for Clinical Laboratory Standards 2000, 5th Edition, M7-A5). […]

[2] = compound at 5 μM (single comparison concentration)
[3] = compound at ¼ MIC (2: 12, 3: 7, 5: 14, 6: 30, 7: 30, 10: 2.5 μM)
[4] = compound at ¼ MIC (2: 12, 3: 7, 5: 14, 6: 30, 7: 30, 10: 2.5 μM), tetracycline alone 900 μM
[5] = compound at ½ MIC (2: 24, 3: 14, 5: 28, 6: 60, 7: 60, 10: 5 μM)
[6] = compound at ½ MIC (2: 24, 3: 14, 5: 28, 6: 60, 7: 60, 10: 5 μM), tetracycline alone 900 μM
[7] = compound at 14 μM (single comparison concentration)
[8] = ATCC29213, >80% growth inhibition, 24 h, 37° C.

Compound | FIC (fractional inhibitory concentration) with tetracycline (Tet^R E. coli; [2]) | Fold Recovery of tetracycline activity (Tet^R E. coli; [2]) | MIC [Tet] (tetracycline in the presence of the compound) (Tet^R E. coli; [2]) | FIC (fractional inhibitory concentration) with tetracycline (Tet^R E. coli; [3]) | MIC [Tet] (tetracycline in the presence of the compound) (Tet^R E. coli; [3]) | Fold Recovery of tetracycline activity (Tet^R E. coli; [4]) | FIC (fractional inhibitory concentration) with tetracycline (Tet^R E. coli; [5]) | MIC [Tet] (tetracycline in the presence of the compound) (Tet^R E. coli; [5]) | Fold Recovery of tetracycline activity (Tet^R E. coli; [6]) | MIC ([1]; ATCC29213, 24 h) | FIC (fractional inhibitory concentration) with tetracycline (Tet^R E. coli; [7]) | Fold Recovery of tetracycline activity (Tet^R E. coli; [7]) | MIC [Tet] (tetracycline in the presence of the compound) (Tet^R E. coli; [7]) | MIC [1, 8] | FIC (synergy with tetracycline) (Tet^R E. coli; at the tested concentrations, synergy FIC<1 (broad) or FIC≤0.5 (conservative)) | recovery of tetracycline activity (Tet^R E. coli; compound at ½ and ¼ of its MIC)
Cl.Cl.N[C@@H](Cc1c[nH]c2ccccc12)C(=O)NCCCNC(=O)[C@@H](N)Cc1c[nH]c2ccccc12 [Compound 7, (2S,2′S)-1,1′-(Propane-1,3-diylbis(azanediyl))bis(3-(1H-indol-3-yl)-1-oxopropan-2-aminium) chloride] | 0.54 | 2-fold | 450 µM | 0.38 | 112.5 µM | 8-fold | 0.63 | 112.5 µM | 8-fold | > 128 µM | – | – | – | – | – | –
Cl.Cl.N[C@@H](Cc1c[nH]c2ccccc12)C(=O)Nc1ccc(NC(=O)[C@@H](N)Cc2c[nH]c3ccccc23)cc1 [Compound 6, (2S,2′S)-1,1′-(1,4-Phenylenebis(azanediyl))bis(3-(1H-indol-3-yl)-1-oxopropan-2-aminium) chloride] | – | – | – | 0.50 | 225 µM | 4-fold | 0.63 | 112.5 µM | 8-fold | – | 0.62 | 2-fold | 450 µM | 128 µM | – | –
Cl.Cl.N[C@@H](Cc1c[nH]c2ccccc12)C(=O)Nc1ccccc1NC(=O)[C@@H](N)Cc1c[nH]c2ccccc12 [Compound 5, (2S,2′S)-1,1′-(1,2-Phenylenebis(azanediyl))bis(3-(1H-indol-3-yl)-1-oxopropan-2-aminium) chloride] | – | – | – | 0.50 | 225 µM | 4-fold | 0.63 | 112.5 µM | 8-fold | – | – | – | – | 32 µM | – | –
Cl.Cl.N[C@H](Cc1c[nH]c2ccccc12)C(=O)Nc1cccc(NC(=O)[C@H](N)Cc2c[nH]c3ccccc23)c1 [Compound 3, (2R,2′R)-1,1′-(1,3-Phenylenebis(azanediyl))bis(3-(1H-indol-3-yl)-1-oxopropan-2-aminium) chloride] | – | – | – | 0.50 | 225 µM | 4-fold | 0.63 | 112.5 µM | 8-fold | – | – | – | – | 32 µM | – | –
Cl.Cl.N[C@H](Cc1c[nH]c2ccccc12)C(=O)NCCCCCCCCCCCCNC(=O)[C@@H](N)Cc1c[nH]c2ccccc12 [Compound 10, (S)-1-((12-((R)-2-Ammonio-3-(1H-indol-3-yl)propanamido)dodecyl)amino)-3-(1H-indol-3-yl)-1-oxopropan-2-aminium chloride] | – | – | – | 0.75 | 450 µM | 2-fold | 0.75 | 225 µM | 4-fold | – | – | – | – | 4 µM | ≥ 0.75 | 2 to 4 fold
Cl.Cl.N[C@@H](Cc1c[nH]c2ccccc12)C(=O)Nc1cccc(NC(=O)[C@@H](N)Cc2c[nH]c3ccccc23)c1 [Compound 2, (2S,2′S)-1,1′-(1,3-Phenylenebis(azanediyl))bis(3-(1H-indol-3-yl)-1-oxopropan-2-aminium) chloride] | – | – | – | 0.38 | 112.5 µM | 8-fold | 0.56 | 56.25 µM | 16-fold | – | 0.42 | 8-fold | 112.5 µM | 32 µM | – | –
